According to patent US20200217837A1, “CHROMATIN PROTECTIVE THERAPEUTICS AND CHROMATIN HETEROGENEITY” (Northwestern University, priority 2016, published 2020):
“Also recorded” adds a separate entry of the source.

How the values were obtained:
[1] = tested on: pancreatic ductal carcinoma PDX model; assay: In vivo validation of CPT on patient derived xenographs; settings: single agent treatment
Experimental: The cell lines were treated with standard (IC50) doses of commonly used chemotherapy drugs (5-FU, Paclitaxel, Oxaliplatin, Docetaxel, Gemcitabine, FOLFIRI). […] Experiments were conducted during development of embodiments herein to test CPT in vivo on patient derived xenographs (PDX) of pancreatic ductal carcinoma (FIG. 15i).

[2] = tested on: cancer cell lines; assay: Live cell PWS of chromatin folding/heterogeneity (D, Σ); type: cell-based; settings: for capacity to reduce chromatin folding (D↓, Σ↓): PWS on live cells; for regulation of chromatin topology / heterogeneity: live cells, LC-PWS, within minutes of treatment where stated; for chromatin heterogeneity Σ: within 30 min, p<0.01; for structural alteration of chromatin folding: five cell line models (A2780, M248, MDA-MB-231, MES-SA, MX2)
Experimental: Test compounds were screened for CPT activity using live cell PWS imaging. Control and 30-60 minute CPT-treated cells were imaged with live cell PWS to determine their effect on nuclear nanoscale heterogeneity (See FIG. 11A for exemplary tested compounds). […]

[3] = tested on: HeLa cells; assay: Mitochondrial membrane potential by TMRE flow cytometry; type: cell-based; settings: 10 μM CCCP
Experimental: (§1) HeLa and CHO cells were grown and prepared for live cell imaging as previously described. Cell measurements for a single field of view were sequentially obtained for 3 minutes prior to treatment with CCCP. HeLa (n=31 from 6 independent experiments) and CHO (n=159 from 5 independent experiments) cells were treated with 10 μM for 15 minutes and imaged before and after treatment. Mock treated cells were incubated with 0.01% DMSO to account for the effect of DMSO solvent on the cells. […] Mitochondrial membrane potential ΔΨm was measured by flow cytometry (BD LSRII at the Northwestern Flow Cytometry Core) for tetramethylrhodamine (TMRE, purchased from Life Technologies, Carlsbad Calif.) stained cells. In brief, cells were trypsinized and immediately stained with 50 nM of TMRE for 30 minutes. Cells were washed twice with PBS after staining and suspended in 1 ml of PBS. CCCP treated cells were treated for 15 minutes to replicate conditions during live cell live cell PWS imaging. At least 20,000 cells were selected by forward and side scattering channels for each group, with a double elimination of doublets from the final analysis. Mean TMRE intensity from each replicate population was used for representative comparison between treated and untreated groups.

[4] = tested on: CHO cells; assay: Live cell PWS, mean nuclear Σ (chromatin nano-architecture); type: cell-based, Chinese Ovarian Hamster
Experimental: (§2) Prior to imaging, media within petri dishes was exchanged with fresh, RPMI-1640 Media (lacking phenol red pH indicator, purchased from Life Technologies) supplemented with 10% FBS (Sigma Aldrich, St. Louis Mo.). For DNA fragmentation experiments, live cell PWS images were acquired at room temperature (22° C.) and in trace CO2 (open air) conditions for cells subsequently stained with Hoechst 33342. During acquisition of time series data (UV and Controls, metabolic perturbation), cells were maintained at physiological conditions for the duration of the experiment. For imaging, a reference scattering spectra was obtained from an open surface of the substrate coverslip immersed in media prior to any cellular imaging to normalize the intensity of light scattered for each wavelength at each pixel. Σ is defined as the spectral standard deviation of our measured reflectance intensity normalized to this reference scattering spectra from the substrate-media interface. […] For Hoechst induced DNA damage experiments, significance was determined using Student's T-test with unpaired, unequal variance on nuclear Δ(Σ) between the conditions indicated in the experiment in both Mathematica v.10 and Microsoft Excel (Microsoft, Redmond, Wash.) with n=146 for Hoechst stained HeLa cells from 11 replicates and n=87 for Hoechst stained CHO cells from 5 replicates. […]

[5] = tested on: HeLa cells; assay: as above; type: cell-based
Experimental: as §2

[6] = tested on: CHO cells; assay: Mitochondrial membrane potential by TMRE flow cytometry; type: cell-based, Chinese Ovarian Hamster; settings: 10 μM CCCP
Experimental: as §1

[7] = tested on: A2780.m248; assay: Cell survival by surface coverage (% inhibition / cell death); type: cell-based; settings: for % Inhibition: Ovarian A2780.m248, after 48 hours, surface coverage relative to control
Experimental: These compounds were tested in combination with the chemotherapy drug paclitaxel.

[8] = tested on: A2780.m248 ovarian cancer cells; assay: Live cell PWS screen for CPT activity (mean nuclear sigma); type: cell-based; settings: 30-60 minute treated cells
[9] = tested on: A2780; assay: Cell survival by surface coverage (% inhibition / cell death); settings: Ovarian A2780; after 48 hours, surface coverage relative to control
[10] = tested on: cancer cell lines; assay: Single-cell sequencing of transcriptional heterogeneity; type: cell-based
From the text: Although partial regulation of folding is achieved through molecular-specific chromatin remodelers (Refs. 12c, 40c; incorporated by reference in their entireties) (CTCF, SWI/SNF, histone modifications), a more efficient global regulation is governed by physico-chemical mechanisms (FIG. 16). A cardiovascular drug digoxin provides one such example.

[11] = tested on: MES-SA MX2; assay: Cell survival by surface coverage (% inhibition); type: cell-based; settings: Sarcoma MES-SA MX2
[12] = tested on: MES-SA; assay: Cell survival by surface coverage (% inhibition); type: cell-based; settings: Sarcoma MES-SA
[13] = tested on: HeLa cells; assay: γ-H2A.X immunofluorescence (DNA fragmentation); type: cell-based; settings: Hoechst-stained cells after UV excitation versus mock-stained
Experimental: Co-registration of live cell PWS imaging and DNA strand damage using phospho-histone H2A.X was performed by immunofluorescent staining on three independent experiments. Cells were fixed for 20 min with 4% paraformaldehyde at room temperature, washed twice with phosphate buffered saline and a permeabilization/blocking step was performed with 0.1% Triton X-100 in 1% bovine serum albumin (Sigma Aldrich, St. Louis Mo.) for 20 min. Cells were again washed twice with PBS and then incubated with AlexaFluor 488 conjugated to anti-γH2A.X (serine 139 residue) rabbit monoclonal antibody (Cell Signaling, Beverly, […].) for 30 minutes. Following incubation with the antibody, cells were imaged using the FITC-EGFP filter on the live cell PWS microscope.

[14] = tested on: A2780 cells; assay: LC-PWS microscopy quantification of chromatin heterogeneity; type: cell-based; settings: 5 nM for 24 hours
[15] = tested on: MDA-MB-231; assay: Cell survival by surface coverage (% inhibition); settings: Breast MDA-MB-231

Cn1cc(C2=C(c3coc4ccc(F)cc34)C(=O)NC2=O)c2cc3c(cc21)OCO3 [9-ING-41]
tumor size [1]: continued to expand in size
capacity to reduce chromatin folding (D↓, Σ↓) [2]: reduce chromatin folding
Σ / CPT strength in multiple cancer cell lines ([2]; colonic, pancreatic, ovarian, and mesothelioma lines): strong CPT; also recorded: decreases Σ

N#CC(C#N)=NNc1cccc(Cl)c1 [CCCP, carbonyl cyanide m-chlorophenyl hydrazone]
decrease in TMRE fluorescence [3]: 10 fold
ΔΨm as gauged by TMRE fluorescence [3]: rapidly lost ΔΨm
change in mean-nuclear Σ ([4]; 10 μM CCCP, 15 minutes): no significant increase
decrease in mean-nuclear Σ ([5]; 10 μM CCCP, 15 minutes): 10%
change in TMRE fluorescence [6]: no significant change
regulation of chromatin topology / heterogeneity [2]: potent regulators of chromatin topology; also recorded: global regulators of chromatin heterogeneity

Cc1ccc(-c2cc(C(F)(F)F)nn2-c2ccc(S(N)(=O)=O)cc2)cc1 [Celecoxib]
% Inhibition [7]: 0%
mean nuclear sigma [8]: decrease in mean nuclear sigma
% Inhibition [9]: 0%
capacity to reduce chromatin folding (D↓, Σ↓) [2]: reduce chromatin folding
regulation of chromatin topology / heterogeneity [2]: homogenization of chromatin; also recorded: potent regulators of chromatin topology; also recorded: global regulators of chromatin heterogeneity
chromatin heterogeneity Σ [2]: Σ↓

COc1cc(/C=C/C(=O)CC(=O)/C=C/c2ccc(O)c(OC)c2)ccc1O [Curcumin]
capacity to reduce chromatin folding (D↓, Σ↓) [2]: reduce chromatin folding

C[C@H]1O[C@@H](O[C@H]2[C@@H](O)C[C@H](O[C@H]3[C@@H](O)C[C@H](O[C@H]4CC[C@@]5(C)[C@H](CC[C@@H]6[C@@H]5C[C@@H](O)[C@]5(C)[C@@H](C7=CC(=O)OC7)CC[C@]65O)C4)O[C@@H]3C)O[C@@H]2C)C[C@H](O)[C@@H]1O [Digoxin, digoxin]
transcriptional divergence and heterogeneity [10]: lower intracellular transcriptional divergence and intercellular heterogeneity
mean nuclear sigma [8]: decrease in mean nuclear sigma
capacity to reduce chromatin folding (D↓, Σ↓) [2]: reduce chromatin folding
chromatin D ([2]; cell culture, within 30 min after application): D↓
structural alteration of chromatin folding [2]: decreases chromatin folding
regulation of chromatin topology / heterogeneity [2]: homogenization of chromatin; also recorded: potent regulators of chromatin topology; also recorded: global regulators of chromatin heterogeneity
chromatin heterogeneity Σ [2]: Σ↓

CC(=O)O[C@@]12CO[C@@H]1C[C@H](O)[C@@]1(C)C(=O)[C@H](O)C3=C(C)[C@@H](OC(=O)[C@H](O)[C@@H](NC(=O)OC(C)(C)C)c4ccccc4)C[C@@](O)([C@@H](OC(=O)c4ccccc4)[C@H]21)C3(C)C [Docetaxel]
% Inhibition [11]: 79%
% Inhibition [12]: 65%
structural alteration of chromatin folding [2]: increases

O=C(O[C@@H]1Cc2c(O)cc(O)cc2O[C@@H]1c1cc(O)c(O)c(O)c1)c1cc(O)c(O)c(O)c1 [EGCG]
capacity to reduce chromatin folding (D↓, Σ↓) [2]: reduce chromatin folding

CCOc1ccc(-c2nc3ccc(-c4nc5ccc(N6CCN(C)CC6)cc5[nH]4)cc3[nH]2)cc1 [Hoechst 33342]
γ-H2A.X antibody accumulation [13]: drastic accumulation
change (decrease) in mean-nuclear Σ ([4]; Hoechst-stained, after UV exposure (excitation)): −7.1%
decrease in mean-nuclear Σ ([5]; Hoechst-stained, after a few seconds of UV exposure (excitation)): 17.01%

CC(=O)O[C@H]1C(=O)[C@@]2(C)[C@H]([C@H](OC(=O)c3ccccc3)[C@]3(O)C[C@H](OC(=O)[C@H](O)[C@@H](NC(=O)c4ccccc4)c4ccccc4)C(C)=C1C3(C)C)[C@]1(OC(C)=O)CO[C@@H]1C[C@@H]2O [Paclitaxel]
Surface coverage relative to control (% survival) ([7]; A2780.m248): 43%
% Inhibition [7]: 57%
chromatin heterogeneity after treatment [14]: increase in chromatin heterogeneity
% Inhibition [15]: 50%
% Inhibition [9]: 21%
structural alteration of chromatin folding [2]: increases

CC(=O)Oc1ccccc1C(=O)O [aspirin]
capacity to reduce chromatin folding (D↓, Σ↓) [2]: reduce chromatin folding
regulation of chromatin topology / heterogeneity [2]: potent regulators of chromatin topology; also recorded: global regulators of chromatin heterogeneity

Nc1ccn([C@@H]2O[C@H](CO)[C@@H](O)C2(F)F)c(=O)n1 [gemcitabine]
tumor size [1]: continued to expand in size

CC1=C(CC(=O)O)c2cc(F)ccc2/C1=C\c1ccc([S+](C)[O-])cc1 (stereo not shown) [sulindac]
chromatin heterogeneity Σ [2]: not

CC(C)[C@@H]1NC(=O)[C@H](C)OC(=O)[C@@H](C(C)C)NC(=O)[C@@H](C(C)C)OC(=O)[C@H](C(C)C)NC(=O)[C@H](C)OC(=O)[C@@H](C(C)C)NC(=O)[C@@H](C(C)C)OC(=O)[C@H](C(C)C)NC(=O)[C@H](C)OC(=O)[C@@H](C(C)C)NC(=O)[C@@H](C(C)C)OC1=O [valinomycin]
capacity to reduce chromatin folding (D↓, Σ↓) [2]: reduce chromatin folding
regulation of chromatin topology / heterogeneity [2]: potent regulators of chromatin topology; also recorded: global regulators of chromatin heterogeneity

CCCC(CCC)C(=O)O [valproic acid]
chromatin heterogeneity Σ [2]: Σ↓
